Measured values as given in ChEMBL document CHEMBL1201862, “PubChem BioAssay data set” (2004).
Counter-ions that a name gives are not always drawn. Calls of active or inactive are those of the source.

Experiments:
CAAX prenyl protease 1 = CAAX prenyl protease 1 (Saccharomyces cerevisiae S288c, UniProt P47154); test: yeast CAAX protease Ste24 inhibition – biochemical, S. cerevisiae, plate reader, cherry-pick, dose response (AID 488815)
CAAX prenyl protease 2 = target: T1, CAAX prenyl protease 2 (Saccharomyces cerevisiae S288c, UniProt Q03530); assay type: biochemical
T1 sequence (Q03530 whole entry): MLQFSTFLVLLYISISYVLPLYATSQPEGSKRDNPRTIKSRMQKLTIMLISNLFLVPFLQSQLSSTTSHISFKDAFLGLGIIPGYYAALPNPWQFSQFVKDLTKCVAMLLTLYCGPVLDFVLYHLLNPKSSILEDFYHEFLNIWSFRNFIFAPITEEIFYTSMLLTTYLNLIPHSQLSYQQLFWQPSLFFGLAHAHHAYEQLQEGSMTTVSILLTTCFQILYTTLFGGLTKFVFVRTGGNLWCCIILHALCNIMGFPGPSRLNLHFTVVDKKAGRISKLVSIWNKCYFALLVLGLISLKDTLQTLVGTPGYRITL

[1] = T. cruzi infection blockers in NIH3T3 cells – beta-gal luminescence, NIH3T3 host cells, confirmation (AID 2630); assay type: functional, cell-based; conditions: Mus musculus
Cytochrome P450 2C9 = Cytochrome P450 2C9 (Homo sapiens, UniProt P11712)
Sequence of Cytochrome P450 2C9 (P11712 whole entry): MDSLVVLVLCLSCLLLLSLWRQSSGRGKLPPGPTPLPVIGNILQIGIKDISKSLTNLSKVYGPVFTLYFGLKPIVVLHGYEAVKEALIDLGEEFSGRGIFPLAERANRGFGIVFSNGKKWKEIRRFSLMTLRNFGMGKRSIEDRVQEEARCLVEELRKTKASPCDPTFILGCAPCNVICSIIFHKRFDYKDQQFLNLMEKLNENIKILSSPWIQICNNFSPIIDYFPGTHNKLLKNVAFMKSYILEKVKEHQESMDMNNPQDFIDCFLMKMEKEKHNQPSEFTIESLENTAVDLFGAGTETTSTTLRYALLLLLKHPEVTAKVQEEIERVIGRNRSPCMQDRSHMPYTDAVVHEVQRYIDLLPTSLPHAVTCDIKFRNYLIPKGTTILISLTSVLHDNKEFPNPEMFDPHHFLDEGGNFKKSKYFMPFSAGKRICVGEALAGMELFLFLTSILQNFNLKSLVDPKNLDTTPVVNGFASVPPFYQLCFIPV

Cytochrome P450 2C19 = Cytochrome P450 2C19 (Homo sapiens, UniProt P33261); test: Cytochrome panel assay with activity outcomes. Panel member name: p450-cyp2c19 Compounds with AC50 equal or less than 10 uM are considered active; assay type: functional; conditions: read-out: AC50
Sequence of Cytochrome P450 2C19 (P33261 whole entry): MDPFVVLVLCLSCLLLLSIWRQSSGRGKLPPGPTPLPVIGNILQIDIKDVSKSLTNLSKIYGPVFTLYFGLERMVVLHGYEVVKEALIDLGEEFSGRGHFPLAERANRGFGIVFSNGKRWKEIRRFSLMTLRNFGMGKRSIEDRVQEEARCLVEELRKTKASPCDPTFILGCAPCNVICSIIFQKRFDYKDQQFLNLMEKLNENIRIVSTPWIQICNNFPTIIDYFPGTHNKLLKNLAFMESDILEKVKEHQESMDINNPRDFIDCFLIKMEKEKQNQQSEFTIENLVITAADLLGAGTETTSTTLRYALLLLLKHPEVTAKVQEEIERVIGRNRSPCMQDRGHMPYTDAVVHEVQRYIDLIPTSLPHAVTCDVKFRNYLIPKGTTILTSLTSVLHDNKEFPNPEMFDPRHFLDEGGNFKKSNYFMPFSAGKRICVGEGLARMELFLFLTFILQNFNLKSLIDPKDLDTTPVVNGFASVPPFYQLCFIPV

Cytochrome P450 3A4 = Cytochrome P450 3A4 (Homo sapiens, UniProt P08684);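 also: CYP3A4 tested as one member of a cytochrome P450 panel screen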
Sequence of Cytochrome P450 3A4 (P08684 whole entry): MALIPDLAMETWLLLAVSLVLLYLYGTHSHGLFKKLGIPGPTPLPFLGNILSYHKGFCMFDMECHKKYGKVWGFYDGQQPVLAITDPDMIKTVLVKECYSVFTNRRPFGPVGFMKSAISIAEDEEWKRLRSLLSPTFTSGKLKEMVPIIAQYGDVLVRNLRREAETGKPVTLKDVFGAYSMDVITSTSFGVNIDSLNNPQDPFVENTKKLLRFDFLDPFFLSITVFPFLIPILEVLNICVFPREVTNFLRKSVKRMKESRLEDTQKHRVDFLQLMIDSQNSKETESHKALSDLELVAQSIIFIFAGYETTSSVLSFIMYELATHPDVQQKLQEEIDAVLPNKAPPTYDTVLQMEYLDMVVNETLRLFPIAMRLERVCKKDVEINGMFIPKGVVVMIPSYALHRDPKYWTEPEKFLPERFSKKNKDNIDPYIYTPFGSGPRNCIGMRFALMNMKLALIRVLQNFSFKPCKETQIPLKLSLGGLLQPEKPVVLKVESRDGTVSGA

Cytochrome P450 1A2 = target: T2, Cytochrome P450 1A2 (Homo sapiens, UniProt P05177);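 also: PubChem cytochrome P450 panel assay, CYP1A2 panel member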
T2 sequence (P05177 whole entry): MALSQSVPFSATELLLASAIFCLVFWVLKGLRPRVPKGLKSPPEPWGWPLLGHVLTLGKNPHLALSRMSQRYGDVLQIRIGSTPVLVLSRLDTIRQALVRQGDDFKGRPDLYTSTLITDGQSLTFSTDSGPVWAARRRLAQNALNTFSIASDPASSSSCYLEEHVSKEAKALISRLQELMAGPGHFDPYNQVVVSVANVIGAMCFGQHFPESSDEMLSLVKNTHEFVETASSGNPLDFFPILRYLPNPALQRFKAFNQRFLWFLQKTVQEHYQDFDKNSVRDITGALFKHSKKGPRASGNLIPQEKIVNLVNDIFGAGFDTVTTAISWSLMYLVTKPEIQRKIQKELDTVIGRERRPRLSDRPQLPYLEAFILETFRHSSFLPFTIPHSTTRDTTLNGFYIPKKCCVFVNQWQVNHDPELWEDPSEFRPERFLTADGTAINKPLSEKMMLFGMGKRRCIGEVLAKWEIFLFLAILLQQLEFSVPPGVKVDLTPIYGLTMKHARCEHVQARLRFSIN

HEK293 [2] = test: cells; conditions: Homo sapiens
[3] = viability of PTEN-deleted HCT116 cells – cell-based, HCT116 PTEN knockout, dose response (AID 1047); assay type: functional;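 also: HCT116 colon tumor cells with PTEN knocked out; cells exposed to compound for 60 hours before readout; potency for loss of cell viability measured by luminescence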
[4] = THP-1 cell cytotoxicity, dose response, cytotoxicity control for non-replicating M. tuberculosis project (AID 489025); assay type: functional
HEK293 [5] = test: cells; conditions: Homo sapiens; remark: listed apart in the source
[6] = viability of HCT116 lacking mutant beta-catenin – cell-based, human colon tumor, dose response (AID 1045); assay type: functional;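 also: HCT116 colon tumor cells with beta catenin knocked out; cells exposed to compound for 60 hours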
[7] = viability of uninfected HEp-2 cells – cell-based, HTS, cytotoxicity control for RSV inhibitor project, dose response (AID 2410); assay type: functional; conditions: human respiratory syncytial virus
[8] = Vero E6 cell cytotoxicity, dose response, cytotoxicity control for non-replicating M. tuberculosis project, secondary assay (AID 492998); assay type: functional, VeroE6; conditions: Vero C1008
[9] = HEK-293T cell viability reduction – luminescence, B-cell screen hits, cytotoxicity control for BCR NF-kB inhibitor project, dose response (AID 489021); assay type: functional, cell-based;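 also: HEK-293T cells carrying an NF-kB luciferase reporter; cells exposed to compound for about 14 hours before viability readout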
[10] = HEK-293T viability loss, compound-treated – cell-based, uHTS hits, cytotoxicity control for B/T-cell NF-kB inhibitor project, dose response (AID 489019); assay type: functional;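 also: IC50 reflects cytotoxicity as loss of cell viability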
[11] = blockade of melanocortin 4 receptor signaling – cell-based, plate reader, cherry pick, counter-screen for LGR2 antagonist project, dose response (AID 743444); assay type: functional;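 also: transfected HEK 293 cells stimulated with alpha-MSH peptide; potency of inhibitors of the alpha-MSH evoked signal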
[12] = blockers of HIV-1 envelope-mediated cell-cell fusion – cherry-pick, dose response (AID 652057); assay type: functional, cell-based
[13] = HIV-1 AD8 envelope cell-cell fusion blockers – cherry-pick, dose response (AID 652062); assay type: functional, cell-based;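 also: luciferase signal from cell-cell fusion driven by HIV-1 clade B AD8 Env; potency is for inhibitors of fusion seen as a drop in luminescence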
[14] = blockers of HIV-1 ZM109 envelope-driven cell-cell fusion – HeLa effector, CEM target cells, luciferase, cherry-pick, dose response (AID 652058); assay type: functional, cell-based;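 also: luciferase signal from HIV-1 Env mediated cell-cell fusion of effector and target cells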
Jurkat = test: blockers of NF-kB activation in T cells – Jurkat, luciferase reporter, luminescence, B- and T-cell, dose response (AID 489004); assay type: functional, cell-based; conditions: Homo sapiens;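 also: NF-kB luciferase reporter Jurkat cells stimulated with PMA plus ionomycin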
[15] = off-target signal loss in HeLa-CEM21 co-culture – HeLa F-luc CTL cells, cherry-picked, counter-screen for HIV-1 Env fusion inhibitor project, dose response (AID 652040); assay type: functional, cell-based;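 also: potency for signal decrease marking cytotoxic or nonspecific inhibition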
[16] = target: Dual specificity tyrosine-phosphorylation-regulated kinase 1A (Rattus norvegicus, UniProt Q63470); assay type: biochemical, Homo sapiens
[17] = target: T3, Microphthalmia-associated transcription factor (Homo sapiens, UniProt O75030); test: reducers of TRPM1 reporter luminescence, concentration series – cell-based, SK-MEL-5, cherry-picked, set 3, MITF inhibitor project, dose response (AID 493073); assay type: functional;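 also: SK-MEL-5 melanoma cells with luciferase driven by the MITF target TRPM1 promoter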
T3 sequence (O75030 whole entry): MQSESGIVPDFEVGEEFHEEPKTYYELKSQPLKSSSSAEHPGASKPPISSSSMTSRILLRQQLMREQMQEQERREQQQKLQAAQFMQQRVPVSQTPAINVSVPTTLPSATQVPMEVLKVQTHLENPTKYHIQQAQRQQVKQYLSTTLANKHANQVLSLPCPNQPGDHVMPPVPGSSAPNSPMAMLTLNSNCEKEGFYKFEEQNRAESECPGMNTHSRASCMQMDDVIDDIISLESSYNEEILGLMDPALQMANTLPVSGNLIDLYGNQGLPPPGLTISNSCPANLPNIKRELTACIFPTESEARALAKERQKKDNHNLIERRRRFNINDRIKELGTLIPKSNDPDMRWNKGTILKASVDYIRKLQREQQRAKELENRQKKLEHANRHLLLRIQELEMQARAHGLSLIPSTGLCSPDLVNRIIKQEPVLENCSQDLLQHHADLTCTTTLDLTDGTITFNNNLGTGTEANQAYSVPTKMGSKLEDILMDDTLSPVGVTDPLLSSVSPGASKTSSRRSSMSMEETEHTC

Mu-type opioid receptor [18] = target: T4, Mu-type opioid receptor (Homo sapiens, UniProt P35372); test: SAR Analysis of Antagonists of the MOR Receptor using an Image-Based Assay - Set 2. [Related pubchem assays (depositor defined):AID1777, AID1785, AID1786, AID1966, AID2133, AID2136, AID2284, AID2285, AID2420]; assay type: functional
T4 sequence (P35372 whole entry): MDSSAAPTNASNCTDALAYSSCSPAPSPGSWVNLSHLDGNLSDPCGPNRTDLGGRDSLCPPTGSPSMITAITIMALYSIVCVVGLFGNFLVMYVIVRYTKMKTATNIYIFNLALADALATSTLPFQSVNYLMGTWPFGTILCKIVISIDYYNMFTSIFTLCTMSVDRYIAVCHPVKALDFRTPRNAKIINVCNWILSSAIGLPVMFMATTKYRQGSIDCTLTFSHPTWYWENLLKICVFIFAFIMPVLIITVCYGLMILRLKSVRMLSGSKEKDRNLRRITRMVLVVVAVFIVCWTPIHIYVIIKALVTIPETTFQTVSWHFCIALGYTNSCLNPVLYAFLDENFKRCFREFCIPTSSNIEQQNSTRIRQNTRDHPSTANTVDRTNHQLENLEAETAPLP

[19] = target: T5, Delta-type opioid receptor (Homo sapiens, UniProt P41143); test: SAR Analysis of Agonists of the DOR Receptor using an Image-Based Assay - Set 2. [Related pubchem assays (depositor defined):AID1777, AID1785, AID1786, AID1966, AID2133, AID2136, AID2284, AID2285, AID2370]; assay type: functional
T5 sequence (P41143 whole entry): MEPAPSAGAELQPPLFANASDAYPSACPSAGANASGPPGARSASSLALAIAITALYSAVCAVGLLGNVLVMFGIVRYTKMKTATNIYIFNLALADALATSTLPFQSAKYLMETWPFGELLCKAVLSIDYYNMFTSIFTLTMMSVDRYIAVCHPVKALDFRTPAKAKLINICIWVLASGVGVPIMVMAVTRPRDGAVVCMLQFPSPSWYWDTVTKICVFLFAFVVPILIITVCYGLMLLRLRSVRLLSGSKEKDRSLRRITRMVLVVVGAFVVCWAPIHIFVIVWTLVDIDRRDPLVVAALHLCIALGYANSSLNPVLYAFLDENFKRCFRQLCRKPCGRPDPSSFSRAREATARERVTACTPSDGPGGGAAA

Mu-type opioid receptor [20] = target: T4, Mu-type opioid receptor; test: SAR Analysis of Agonists of the MOR Receptor using an Image-Based Assay - Set 2. [Related pubchem assays (depositor defined):AID1777, AID1785, AID1786, AID1966, AID2133, AID2136, AID2284, AID2285, AID2352]; assay type: functional
[21] = target: T6, Kappa-type opioid receptor (Homo sapiens, UniProt P41145); test: SAR analysis of small molecule agonists of the kappa opioid receptor via a luminescent beta-arrestin assay - Set 2. [Related pubchem assays (depositor defined):AID1777, AID1785, AID1786, AID1966, AID2133, AID2136, AID2284, AID449737]; assay type: functional
T6 sequence (P41145 whole entry): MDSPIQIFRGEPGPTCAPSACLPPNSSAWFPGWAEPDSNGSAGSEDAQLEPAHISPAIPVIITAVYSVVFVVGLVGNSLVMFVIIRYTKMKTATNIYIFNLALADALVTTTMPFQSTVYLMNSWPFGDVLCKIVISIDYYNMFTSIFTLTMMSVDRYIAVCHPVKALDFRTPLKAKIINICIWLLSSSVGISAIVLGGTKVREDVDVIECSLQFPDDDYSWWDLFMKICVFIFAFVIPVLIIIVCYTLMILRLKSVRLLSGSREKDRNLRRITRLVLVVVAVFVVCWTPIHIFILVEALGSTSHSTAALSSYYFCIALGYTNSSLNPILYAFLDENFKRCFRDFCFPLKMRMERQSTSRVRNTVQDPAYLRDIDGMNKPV

[22] = target: T6, Kappa-type opioid receptor; test: SAR analysis of Antagonists of the Kappa Opioid Receptor (KOR) using an Image-Based Assay - Set 2. [Related pubchem assays (depositor defined):AID1777, AID1785, AID1786, AID1966, AID2133, AID2136, AID2284, AID2285, AID2348]; assay type: functional
[23] = target: T5, Delta-type opioid receptor; test: SAR Analysis of Antagonists of the DOR Receptor using an Image-Based Assay - Set 2. [Related pubchem assays (depositor defined):AID1777, AID1785, AID1786, AID1966, AID2133, AID2136, AID2284, AID2285, AID2357]; assay type: functional
[24] = target: T6, Kappa-type opioid receptor; test: SAR analysis of Agonists of the Kappa Opioid Receptor (KOR) using an Image-Based Assay - Set 2. [Related pubchem assays (depositor defined):AID1777, AID1786, AID1966, AID2133, AID2136, AID2284, AID2285, AID2359]; assay type: functional
[25] = target: Glucose-6-phosphate 1-dehydrogenase (Homo sapiens, UniProt P11413); test: inhibition of Homo sapiens G6PD, dose series – biochemical, fluorescence, selectivity assay for P. falciparum G6PD inhibitor project, dose response (AID 504792); assay type: functional
Sequence of Glucose-6-phosphate 1-dehydrogenase (P11413 whole entry): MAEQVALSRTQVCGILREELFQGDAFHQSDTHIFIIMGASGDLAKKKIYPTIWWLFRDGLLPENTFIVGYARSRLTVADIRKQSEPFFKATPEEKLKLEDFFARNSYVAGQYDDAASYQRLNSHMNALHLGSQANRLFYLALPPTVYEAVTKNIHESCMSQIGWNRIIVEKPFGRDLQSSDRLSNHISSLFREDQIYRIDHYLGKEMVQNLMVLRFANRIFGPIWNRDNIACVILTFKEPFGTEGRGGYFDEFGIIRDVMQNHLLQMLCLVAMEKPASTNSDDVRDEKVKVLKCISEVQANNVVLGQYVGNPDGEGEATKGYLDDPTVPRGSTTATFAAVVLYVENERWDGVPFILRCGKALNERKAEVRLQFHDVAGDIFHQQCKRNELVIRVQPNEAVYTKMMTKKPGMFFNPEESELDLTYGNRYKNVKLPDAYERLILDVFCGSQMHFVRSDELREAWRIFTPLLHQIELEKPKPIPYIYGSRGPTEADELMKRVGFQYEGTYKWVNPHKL

[26] = target: Voltage-gated inwardly rectifying potassium channel KCNH2 (Homo sapiens, UniProt Q12809); conditions: Potency;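 also: confirmatory quantitative high-throughput screen measuring inhibition of hERG channel activity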
Sequence of Voltage-gated inwardly rectifying potassium channel KCNH2 (Q12809 whole entry): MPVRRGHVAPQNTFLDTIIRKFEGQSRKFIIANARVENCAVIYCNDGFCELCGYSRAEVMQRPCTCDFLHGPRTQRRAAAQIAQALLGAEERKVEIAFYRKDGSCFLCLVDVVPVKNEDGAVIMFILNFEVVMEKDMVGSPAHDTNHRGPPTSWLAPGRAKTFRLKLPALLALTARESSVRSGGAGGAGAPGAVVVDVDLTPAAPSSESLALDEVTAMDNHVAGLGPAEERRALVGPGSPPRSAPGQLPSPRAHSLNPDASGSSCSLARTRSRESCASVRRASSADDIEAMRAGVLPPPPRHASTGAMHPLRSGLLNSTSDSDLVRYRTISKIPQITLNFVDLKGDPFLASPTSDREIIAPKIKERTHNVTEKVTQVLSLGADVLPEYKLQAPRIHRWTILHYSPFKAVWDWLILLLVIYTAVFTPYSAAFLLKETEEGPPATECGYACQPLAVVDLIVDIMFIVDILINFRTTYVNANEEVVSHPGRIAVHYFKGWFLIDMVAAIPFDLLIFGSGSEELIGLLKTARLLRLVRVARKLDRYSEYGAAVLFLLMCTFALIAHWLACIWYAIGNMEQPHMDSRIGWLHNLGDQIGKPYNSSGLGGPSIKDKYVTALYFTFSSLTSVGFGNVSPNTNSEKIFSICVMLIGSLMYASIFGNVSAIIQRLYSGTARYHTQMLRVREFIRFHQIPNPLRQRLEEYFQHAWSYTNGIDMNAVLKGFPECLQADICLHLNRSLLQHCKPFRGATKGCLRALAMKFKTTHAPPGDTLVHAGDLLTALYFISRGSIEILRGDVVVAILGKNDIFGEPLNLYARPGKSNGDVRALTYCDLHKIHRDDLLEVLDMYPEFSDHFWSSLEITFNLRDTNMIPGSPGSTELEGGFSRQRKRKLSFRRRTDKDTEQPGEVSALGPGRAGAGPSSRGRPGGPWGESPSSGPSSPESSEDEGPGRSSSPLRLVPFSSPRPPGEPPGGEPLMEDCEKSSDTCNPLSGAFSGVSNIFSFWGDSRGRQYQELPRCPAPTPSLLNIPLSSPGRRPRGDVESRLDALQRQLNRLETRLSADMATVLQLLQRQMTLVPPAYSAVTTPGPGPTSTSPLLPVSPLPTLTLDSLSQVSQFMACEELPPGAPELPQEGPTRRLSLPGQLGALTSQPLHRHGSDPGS

Sequence of CAAX prenyl protease 1 (P47154 whole entry): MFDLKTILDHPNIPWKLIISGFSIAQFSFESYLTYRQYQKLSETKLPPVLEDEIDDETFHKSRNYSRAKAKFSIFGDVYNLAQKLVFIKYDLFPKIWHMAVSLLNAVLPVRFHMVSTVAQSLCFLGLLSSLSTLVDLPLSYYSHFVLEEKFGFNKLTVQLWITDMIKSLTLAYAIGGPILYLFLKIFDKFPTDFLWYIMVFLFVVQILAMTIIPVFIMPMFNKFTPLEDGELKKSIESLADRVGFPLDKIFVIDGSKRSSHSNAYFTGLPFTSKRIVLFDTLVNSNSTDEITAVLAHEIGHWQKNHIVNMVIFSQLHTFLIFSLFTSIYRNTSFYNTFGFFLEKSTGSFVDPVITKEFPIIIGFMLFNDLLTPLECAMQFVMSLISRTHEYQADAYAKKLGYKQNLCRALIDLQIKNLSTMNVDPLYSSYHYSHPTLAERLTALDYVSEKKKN

With `NC(=O)CSC1=Nc2ccccc2C2=NC(c3ccccc3)C(=O)N12` (configuration not stated) as the molecule, how does the AC50 (CAAX prenyl protease 1) read?
The AC50 was 5.41 µM (active).

What about the AC50 (CAAX prenyl protease 2) of the same molecule?
Its AC50 is 4.61 µM (active).

For `Cc1cc(C)n(CC(=O)N2CCCC(C(=O)c3cccc(OC(C)C)c3)C2)n1` (configuration not stated), which EC50 [1] is on record?
The EC50 was 14.1 µM (active).

With `CCCCC1(C)OC(=O)C(=Cc2ccc(N(C)C)cc2)C(=O)O1` (configuration not stated) as the molecule, how does the AC50 (Cytochrome P450 2C9) read?
The AC50 was “inconclusive”.

What about the AC50 (Cytochrome P450 2C19) of the same molecule?
The AC50 was 28.2 µM (inconclusive).

And the AC50 (Cytochrome P450 3A4)?
Its AC50 is 1 µM (inconclusive).

And the AC50 (Cytochrome P450 1A2)?
Its AC50 is 14.1 µM (inconclusive).

For `CC1=CC(C)(C)Nc2ccc(OC(=O)CN3C(=O)c4ccccc4C3=O)cc21`, which EC50 (HEK293 [2]) is on record?
The EC50 was > 59.6 µM (inactive).

And the EC50 [3]?
The EC50 was 9.51 µM (active).

What about the CC50 [4] of the same molecule?
The CC50 was 6.68 µM (active).

What about the EC50 (HEK293 [5]) of the same molecule?
Its EC50 is > 59.6 µM (inactive).

And the EC50 [6]?
The EC50 was 5.85 µM (active).

And the CC50 [7]?
Its CC50 is 6.94 µM (active).

What about the CC50 [8] of the same molecule?
Its CC50 is 13.6 µM (active).

And the IC50 [9]?
Its IC50 is 58.6 µM (inactive).

For `Cc1ccc2nc(NC(=O)CCCC(=O)O)sc2c1`, which IC50 [10] is on record?
The IC50 was > 80 µM (inactive).

And the AC50 [11]?
Its AC50 is 44.1 µM (active).

And the AC50 [12]?
Its AC50 is 1.42 µM (active).

And the AC50 [13]?
The AC50 was 1.02 µM (active).

And the AC50 [14]?
Its AC50 is 0.62 µM (active).

What about the IC50 (Jurkat) of the same molecule?
The IC50 was 0.8 µM (active).

What about the AC50 [15] of the same molecule?
The AC50 was 2.82 µM (active).

What about the AC50 [16] of the same molecule?
The AC50 was 4.63 µM (active).

And the AC50 [17]?
The AC50 was 12.1 µM (active).

For `Cc1ccc(CSc2nnc(-c3ccccn3)n2Cc2cccs2)cc1`, which IC50 (Mu-type opioid receptor [18]) is on record?
Its IC50 is > 32 µM (inactive).

And the EC50 [19]?
The EC50 was > 32 µM (inactive).

What about the EC50 (Mu-type opioid receptor [20]) of the same molecule?
Its EC50 is > 32 µM (inactive).

And the EC50 [21]?
Its EC50 is 3.59 µM (active).

What about the IC50 [22] of the same molecule?
Its IC50 is > 32 µM (inactive).

And the IC50 [23]?
The IC50 was > 32 µM (inactive).

And the EC50 [24]?
Its EC50 is 2.38 µM (active).

With `C[N+]1([C@H](CO)Cc2c[nH]c3ccccc23)Cc2ccccc2C1.O=S(=O)([O-])c1ccccc1` as the molecule, how does the AC50 (Cytochrome P450 1A2) read?
Its AC50 is “inactive”.

With `Cc1[nH]c2ccccc2c1/C=N/NC(=O)c1cccc(S(=O)(=O)Nc2ccccc2Cl)c1` as the molecule, how does the IC50 [25] read?
The IC50 was > 80 µM (inactive).

With `COc1ccc(NC(C)C(=O)N/N=C/c2cc(Br)ccc2OC)cc1` (configuration not stated) as the molecule, how does the IC50 [25] read?
The IC50 was > 80 µM (inactive).

With `CC(CCc1ccccc1)NCC(O)c1ccc(O)c(C(N)=O)c1` (configuration not stated) [LABETALOL HYDROCHLORIDE] as the molecule, how does the AC50 (CAAX prenyl protease 1) read?
Its AC50 is 7.7 µM (active).

And the AC50 [26]?
The AC50 was 15.8 µM (inconclusive).

And the AC50 (CAAX prenyl protease 2)?
Its AC50 is 15.3 µM (active).
